The test system of one experiment is mTORC1. In words: mTORC1 activity assay: rpS6 phosphorylation (AlphaScreen SureFire) in C2C12 myotubes. To be noted: for Avg fold change of intracellular rpS6 phosphorylation (P-rpS6) compared to untreated cells: C2C12 myotubes, 30 min, normalized to total protein; for mTOR: statistically significant assay result: between 2X and 5X doses, compared to untreated control. Set-up: key to mTOR: statistically significant assay result: statistically significant assay results between 2X and 5X doses; ns - not significant; NT - not tested. The format is cell-based, mouse. An excerpt: Metabolism is controlled by the mTORC1 signaling complex, an essential protein kinase that regulates cellular processes such as protein synthesis and autophagy. A number of distinct signals control mTORC1 activity, including amino acids and growth factors like insulin, and proper regulation is necessary for the maintenance of muscle mass. Dysregulation of mTORC1 activity is associated with muscle wasting (atrophy) in many diseases, and conversely, addition of muscle mass (hypertrophy) requires protein synthesis-inducing mTORC1 signaling. The ability of different amino acids to induce mTORC1 signaling in myotubes was assessed using an alpha-elisa screen for phosphorylated ribosomal protein S6 (P-rpS6), an important substrate downstream of mTORC1 involved in promoting protein synthesis.
In this example, murine muscle cells were incubated with a composition including amino acids and assessed for mTORC1 activation. C2C12, mouse muscle cells, were obtained from ATCC (CRL-1772, Manassas, VA). The cells were seeded on day 0 at 1.0E4 cells per well in 96-well TC-treated microplates (Corning, Corning, NY) in Dulbecco's Modified Eagle Medium (DMEM, Corning) supplemented with 10% fetal bovine serum (Corning) and 0.2% Primocin (InVivoGen, San Diego, Calif.) and incubated for 48 hours at 37° C., 5% CO2. On day 2, the medium was changed to DMEM (Corning) supplemented with 2% horse serum (Horse Serum, New Zealand origin, ThermoFisher, Waltham, MA) and 0.2% Primocin. On day 5, the medium was replaced with fresh DMEM supplemented with 2% horse serum and 0.2% Primocin.
On day 7, the DMEM supplemented with 2% horse serum and 0.2% Primocin was replaced with amino acid free DMEM (US Biologicals, Salem, Mass.) containing a defined custom amino acid concentration based on 0.5× the mean physiological concentrations in blood based on values published in the Human Metabolome Database (HMDB (Wishart DS, Tzur D, Knox C, et al., HMDB: the Human Metabolome Database. Nucleic Acids Res. 2007 January; 35 (Database issue):D521-6. 17202168), with 25 mM Glucose, 1 mM Sodium Pyruvate and incubated for 2 hours at 37° C., 5% CO2. Next, the cell medium was replaced with amino acid free DMEM (US Biologicals, Salem, Mass.) containing a defined custom amino acid concentration based on 0.5× the mean physiological concentrations in blood based on values published in the HMDB and a dose curve of defined amino acid compositions listed in Table 5 at 4 doses relative to plasma levels (1×, 2×, 5× and 10×; as defined by mean amino acid concentrations in the HMDB database). Combinations containing N-acetylcysteine were dosed with 0.2 mM. Cells were treated for 30 min at 37° C., 5% CO2. After treatment, the cells were washed lx in 100uL cold phosphate-buffered saline 1×, pH 7.2 (PBS, ThermoFisher). For the detection of the intracellular rpS6 phosphorylation, the AlphaScreen SureFire cellular kinase assay kit (rpS6 ([…]) and the AlphaScreen protein A kit (PerkinElmer, Waltham, Mass.) were used.
Data are presented as fold change of intracellular rpS6 phosphorylation in C2C12 myotubes normalized to the total protein amount compared to untreated cells. […] Statistical significance was determined by one-way ANOVA for each composition dose relative to untreated.

For another experiment, the system named is C2C12 myotubes. In words: Myotube growth assay: myotube area in C2C12 myotubes. The format is cell-based, murine. Set-up: key to GROWTH: statistically significant assay result: statistically significant assay results between 2X and 5X doses; ns - not significant; NT - not tested. The following applies: for myotube growth dose response, Avg myotube area normalized to nuclear count: untreated = 1.000; for GROWTH: statistically significant assay result: between 2X and 5X doses, compared to untreated control. From the text:
Myotubes are multi-nucleated and elongated cells that express master regulators of skeletal muscle gene expression including MyoD and Myogenin. Myotubes are formed by differentiating myoblasts (muscle progenitor cells) for approximately 1 week. Once formed, myotubes size can be promoted (e.g. insulin) or inhibited (e.g. myostatin) with various molecules in order to assess effects on muscle size in vitro. C2C12 cells are commonly-used murine myogenic cells that upon differentiation form myotubes. C2C12 myotubes were used to test whether specific amino acid compositions can promote growth in vitro.
C2C12 murine myoblast cells (ATCC CRL-1772) were seeded on day 0 at 1.0E4 cells per well in collagen I coated 96-well optical polymer microplates (ThermoFisher) in Dulbecco's Modified Eagle Medium (DMEM, Corning) supplemented with 10% heat inactivated fetal bovine serum (HI-FBS, Atlanta Biologicals) and 0.2% Primocin (InVivoGen) and incubated overnight at 37° C., 5% CO2. On day 1, media was washed and differentiation media (DMEM supplemented with 2% horse serum) was added to the cells and fresh differentiation media was also applied on Day 3. On Day 6, cells were washed with amino acid-free DMEM and then treated with basal growth media containing 0.2% dialyzed FBS and all amino acids at 0.25× concentrations found in plasma based on values reported in the Human Metabolome Database (HMDB).
Fresh growth media and AA treatments were applied a second time on Day 8. On day 10, media was removed and cells were incubated in pre-warmed 4% Paraformaldehyde in PBS for 12 mins at room temperature and then washed 3× in PBS. Immunostaining with MHC (MF-20, University of Iowa Developmental Hybridoma Studies bank) was performed according to cell signaling general immunofluorescence protocol. Briefly, fixed cells were incubated in blocking buffer (5% normal goat serum 0.3% triton PBS) for 30-60 minutes, and then incubated overnight at 4° C. in primary antibody 1:1000 in antibody dilution buffer (1% BSA 0.3% triton in PBS). The next day the plate was equilibrated to room temperature, washed 3 times for 5 minutes in room temperature PBS and then with secondary antibody (Fab′ anti-mouse Alexa488, 1:2000) in antibody dilution buffer for 1-2 hours. Cells were washed 2 times for 5 minutes, incubated in Hoechst stain (Mol Probes 1:4000) for 10 minutes at room temperature, and washed an additional 2 times five minutes each in PBS. Molecular device HCS was used for image acquisition and analysis. Imaging was performed with a 10× wide field objective at both GFP and UV channels (FITC and DAPI) and analysis was performed using a modified version of the angiogenesis module in the MetaExpress Software measuring average total myotube area, myotube breadth, total nuclear counts, fused nuclear counts, and unfused nuclear counts.

For experiment [1], the system named is C2C12 murine myoblast cells. The experiment is described as follows: Myogenesis assay: myotube differentiation of C2C12 myoblasts, MHC immunostaining. It counts as cell-based. Set-up: key to MYOGENESIS: statistically significant assay result: statistically significant assay results between 2X and 5X doses; ns - not significant; NT - not tested. The following applies: for myogenesis dose response, Avg fold-change to untreated: C2C12 myoblasts differentiated 4 days. From the text:
Myogenesis is the process of forming skeletal muscle fibers (myofibers) which contain the minimal contractile units (sarcomeres) responsible for force transduction and load bearing in higher eukaryotes. During development single nucleated myogenic cells fuse, differentiate, and induce expression of the cytoskeletal complexes required for muscle contraction. A highly similar process is induced in response to muscle injury where satellite cells, or skeletal muscle stem cells, are activated, differentiate and fuse with damaged myofibers, thereby contributing myonuclei and supporting muscle repair. C2C12 cells are murine myogenic cells that, upon differentiation, fuse to form multi-nucleated myotubes (primitive myofibers) that express master regulators of muscle-specific gene expression, for example myosin heavy chain, a critical component of sarcomeres. C2C12 cells were selected as a model of myogenesis and used to test whether specific amino acid compositions would promote formation of myotubes and expression of the myotube-specific marker myosin heavy chain.
C2C12 murine myoblast cells were obtained from ATCC (CRL-1772) and seeded on day 0 at 1.0E4 cells per well in collagen I coated 96-well optical polymer microplates (ThermoFisher) in Dulbecco's Modified Eagle Medium (DMEM, Corning) supplemented with 10% heat inactivated fetal bovine serum (HI-FBS, Atlanta Biologicals) and 0.2% Primocin (InVivoGen) and incubated overnight at 37° C., 5% CO2. […] Cells were differentiated for 4 days at 37° C., 5% CO2 with a media replenishment and an additional amino acid composition or control treatment on Day 3. On day 5, the media was removed and cells were incubated in pre-warmed 4% Paraformaldehyde in PBS for 12 mins at room temperature and then washed 3× in PBS.
Immunostaining with MHC (MF-20, University of Iowa Developmental Hybridoma Studies bank) was performed according to cell signaling general immunofluorescence protocol. Briefly, fixed cells were incubated in blocking buffer (5% normal goat serum 0.3% triton PBS) for 30 to 60 minutes, and then incubated overnight at 4° C. in primary antibody 1:1000 in antibody dilution buffer (1% BSA 0.3% triton in PBS). The next day the plate was equilibrated to room temperature, washed 3 times for 5 minutes in room temperature PBS and then with secondary antibody (Fab' anti-mouse Alexa488, 1:2000) in antibody dilution buffer for 1-2 hours. Cells were washed two times for 5 minutes, incubated in Hoechst stain (Mol Probes 1:4000) for 10 minutes at room temperature, and washed an additional two times for five minutes each in PBS. Molecular device HCS was used for image acquisition and analysis. Imaging was performed with a 10× wide field objective at both GFP and UV channels (FITC and DAPI) and analysis was performed using a custom module in the MetaExpress Software measuring average FITC intensity, integrated FITC intensity, and nuclear counts.
The data is the average of 3 independent experiments.

[2] abbreviates: dose 1X relative to plasma levels.
The mark [3] stands for this setting: dose 2X relative to plasma levels.
[4] abbreviates: dose 5X relative to plasma levels.
[5] abbreviates: dose 10X relative to plasma levels.
The mark [6] stands for this setting: C2C12 myotubes, dose 1.25X relative to plasma levels.
Setting [7] is: C2C12 myotubes, dose 2.5X relative to plasma levels.
[8] abbreviates: C2C12 myotubes, dose 5X relative to plasma levels.
[9] abbreviates: C2C12 myotubes, dose 10X relative to plasma levels.

Take `CC(=O)N[C@@H](CS)C(=O)O` [Nac, N-acetylcysteine]: the “Avg fold change of intracellular rpS6 phosphorylation (P-rpS6) compared to untreated cells” value with mTORC1 (setting [2]) was found to be 0.9198 fold change; with mTORC1 (setting [3]), 0.8626 fold change; in the experiment with mTORC1 (setting [4]), 0.8741 fold change; with mTORC1 (setting [5]) it was 0.9485 fold change. Moreover, in the experiment on mTORC1, the “mTOR: statistically significant assay result” value was “ns”. Also, the “myotube growth dose response, Avg myotube area normalized to nuclear count” value with C2C12 myotubes (setting [6]) is listed as 1.121; in the experiment on C2C12 myotubes (setting [7]) it was 1.036; in the experiment with C2C12 myotubes (setting [8]), 1.153; with C2C12 myotubes (setting [9]), 1.267. The “GROWTH: statistically significant assay result” value with C2C12 myotubes is on record as “ns”.
Take `NC(=O)CC[C@H](N)C(=O)O` [Q, glutamine]: the “Avg fold change of intracellular rpS6 phosphorylation (P-rpS6) compared to untreated cells” value with mTORC1 (setting [2]) came out at 1.052 fold change; in the experiment on mTORC1 (setting [3]), 0.9176 fold change; in the experiment with mTORC1 (setting [4]), 0.8748 fold change; in the experiment with mTORC1 (setting [5]), 0.8139 fold change. Moreover, the “mTOR: statistically significant assay result” value with mTORC1 was “ns”. Moreover, the “area of myotubes in the culture well (in words)” value in the experiment with C2C12 myotubes (C2C12 myotubes, across two experiments) is “no effect or were inhibitory”. Besides, the “myotube growth dose response, Avg myotube area normalized to nuclear count” value in the experiment with C2C12 myotubes (setting [6]) came to 1.235; with C2C12 myotubes (setting [7]) it was 1.202; with C2C12 myotubes (setting [8]), 1.075; with C2C12 myotubes (setting [9]), 1.077. For the same compound, in the experiment with C2C12 myotubes, the “GROWTH: statistically significant assay result” value is reported as “ns”. Further, the “myogenesis dose response, Avg fold-change to untreated” value in experiment [1] (dose 1.25X relative to HMDB plasma levels) is listed as 1.127 fold-change; in experiment [1] (dose 2.5X relative to HMDB plasma levels), 1.066 fold-change; in experiment [1] (dose 5X relative to HMDB plasma levels), 1.087 fold-change; in experiment [1] (dose 10X relative to HMDB plasma levels), 1.041 fold-change. For the same compound, the “MYOGENESIS: statistically significant assay result” value in experiment [1] (between 2X and 5X doses, compared to untreated control) is given as “ns”.
